The source of these data is patent publication US20230381314A1, “ATTENUATED CANCER CELLS AND METHODS RELATED THERETO” (priority 2020, published 2023).

One data set concerns AML model (C1498 cells). The data set can be described thus: In vivo treatment of AML with adjuvant (chemo-immunotherapy). The arrangement: species or system C57BL/6J mice. The settings on record: leukemia-bearing mice, up to 21 days post-tumor inoculation, DOX 5 mg/kg, MPLA 20 μg. Here is the method: AML model was established by intravenous injection of 5×10^6 C1498 cells on day 0. On day 8 and day 15, saline, LNT cell+Adjuvant, free DOX and LNT cell/DOX+Adjuvant were administrated intravenously with DOX dose of 5 mg/kg and adjuvant (monophosphoryl lipid A, MPLA) 20 μg per mouse. Specifically, MPLA was intravenously injected 10 h post-injection of LNT cell or LNT cell/DOX. The bioluminescence images of mice were captured every 3 days. The exposure time was 2 min. On day 13, 400 μL blood was collected via the orbital vein. 200 μL blood was treated with ACK buffer and centrifuged at 800 g for 8 min to obtain pellets of white blood cells. After staining with BV421-CD3, PE-CD4 and APC-CD8, the samples were analyzed by flow cytometry. Another 200 μL blood in blood serum collection tubes (BD Microtainer 365967) was centrifuged at 3000 rpm for 10 min. The upper serum was detected with the following ELISA kits: IFN-γ (BioLegend 430804) and TNF-α (BioLegend 430904).

Take `COc1cccc2c1C(=O)c1c(O)c3c(c(O)c1C2=O)C[C@@](O)(C(=O)CO)C[C@@H]3O[C@H]1C[C@H](N)[C@H](O)[C@H](C)O1.Cl` [free DOX, Doxorubicin hydrochloride]: the “IC50, in vitro cytotoxicity against C1498 cells” value in the data set with C1498 cells was 0.32 µg/mL. The “AML progression (bioluminescence of AML cancer cells)” value in the data set on AML model (C1498 cells) is listed as “partially inhibited”.
